In ChEMBL document CHEMBL5212743, “Selectivity Literature for EUbOPEN Chemogenomics Library wave 3” (2023):

Assays:
[1] = biological target: Serine/threonine-protein kinase Chk2 (Homo sapiens, UniProt O96017); assay: Selectivity interaction (KinomeScan (DiscoverX)) EUB0000542a CHEK2; conditions: at 1 µM
[2] = biological target: Polyunsaturated fatty acid 5-lipoxygenase (Homo sapiens) (UniProt P09917); assay: (§1) Selectivity interaction (Eurofins-Panlabs screen) EUB0000542a ALOX5; conditions: at 10 µM
[3] = biological target: Polyunsaturated fatty acid 5-lipoxygenase (Homo sapiens, UniProt P09917); assay: as §1
[4] = biological target: Tyrosine-protein kinase receptor TYRO3 (Homo sapiens) (UniProt Q06418); assay: Selectivity interaction (KinomeScan (DiscoverX)) EUB0000542a TYRO3; conditions: at 1 µM
Sequence of Tyrosine-protein kinase receptor TYRO3 (Homo sapiens) (Q06418 whole entry): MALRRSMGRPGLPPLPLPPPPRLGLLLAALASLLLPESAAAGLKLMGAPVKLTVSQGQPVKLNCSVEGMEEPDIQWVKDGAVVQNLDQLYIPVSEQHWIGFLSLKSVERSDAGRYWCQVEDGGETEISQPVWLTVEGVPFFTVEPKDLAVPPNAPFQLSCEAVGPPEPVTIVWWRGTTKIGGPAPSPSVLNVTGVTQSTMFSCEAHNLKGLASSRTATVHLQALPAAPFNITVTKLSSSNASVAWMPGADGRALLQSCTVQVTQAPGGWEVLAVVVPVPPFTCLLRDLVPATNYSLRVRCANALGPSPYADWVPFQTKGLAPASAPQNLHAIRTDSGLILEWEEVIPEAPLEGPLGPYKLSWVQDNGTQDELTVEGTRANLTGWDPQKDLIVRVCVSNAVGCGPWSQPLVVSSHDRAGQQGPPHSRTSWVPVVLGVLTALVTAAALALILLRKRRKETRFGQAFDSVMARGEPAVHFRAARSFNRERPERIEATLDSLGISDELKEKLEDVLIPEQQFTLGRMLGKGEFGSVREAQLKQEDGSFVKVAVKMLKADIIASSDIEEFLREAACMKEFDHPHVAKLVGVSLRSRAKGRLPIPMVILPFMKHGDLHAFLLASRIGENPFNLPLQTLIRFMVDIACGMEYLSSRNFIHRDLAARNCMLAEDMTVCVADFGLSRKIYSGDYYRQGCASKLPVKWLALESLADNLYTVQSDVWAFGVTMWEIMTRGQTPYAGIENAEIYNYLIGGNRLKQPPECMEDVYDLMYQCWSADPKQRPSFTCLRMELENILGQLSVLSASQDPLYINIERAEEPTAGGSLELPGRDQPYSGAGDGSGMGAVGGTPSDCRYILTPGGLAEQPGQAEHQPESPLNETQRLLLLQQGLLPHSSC

[5] = biological target: Tyrosine-protein kinase JAK1 (Homo sapiens, UniProt P23458); assay: Selectivity interaction (KinomeScan (DiscoverX)) EUB0000542a JAK1@kinase 2; conditions: at 1 µM
[6] = biological target: Thromboxane-A synthase (Homo sapiens) (UniProt P24557); assay: (§2) Selectivity interaction (Eurofins-Panlabs screen) EUB0000542a CYP5A1; conditions: at 10 µM
Thromboxane-A synthase = Thromboxane-A synthase (Homo sapiens, UniProt P24557); assay: as §2
D(2) dopamine receptor = D(2) dopamine receptor (Homo sapiens, UniProt P14416); assay: Selectivity interaction (GPCR panel (PDSP screen)) EUB0000728a DRD2; conditions: at 10 µM
[7] = biological target: Calcium/calmodulin-dependent protein kinase type 1B (Homo sapiens, UniProt Q6P2M8); assay: Selectivity interaction (KinomeScan (DiscoverX)) EUB0000728a PNCK; conditions: at 1 µM
Collagenase 3 = Collagenase 3 (Homo sapiens, UniProt P45452); assay: Selectivity interaction (Lead profiling screen (Eurofins, enzymes, transporters, GPCRs, ion chanels)) EUB0000728a MMP13
Stromelysin-2 = Stromelysin-2 (Homo sapiens, UniProt P09238); assay: Selectivity interaction (Lead profiling screen (Eurofins, enzymes, transporters, GPCRs, ion chanels)) EUB0000728a MMP10
Sequence of Stromelysin-2 (P09238 whole entry): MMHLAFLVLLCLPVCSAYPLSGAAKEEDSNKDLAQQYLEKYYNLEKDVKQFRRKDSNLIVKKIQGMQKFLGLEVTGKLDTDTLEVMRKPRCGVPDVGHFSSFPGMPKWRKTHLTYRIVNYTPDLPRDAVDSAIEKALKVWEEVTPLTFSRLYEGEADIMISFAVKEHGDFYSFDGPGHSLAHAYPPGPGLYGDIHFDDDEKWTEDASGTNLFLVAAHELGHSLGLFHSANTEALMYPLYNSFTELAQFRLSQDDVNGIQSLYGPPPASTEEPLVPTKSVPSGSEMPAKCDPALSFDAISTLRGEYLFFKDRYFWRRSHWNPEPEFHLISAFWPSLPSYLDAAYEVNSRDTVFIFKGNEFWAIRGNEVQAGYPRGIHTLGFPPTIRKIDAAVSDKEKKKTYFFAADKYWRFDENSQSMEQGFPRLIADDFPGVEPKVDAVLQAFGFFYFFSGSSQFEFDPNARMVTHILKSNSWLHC

[8] = biological target: Matrix metalloproteinase-14 (Homo sapiens, UniProt P50281); assay: Selectivity interaction (Lead profiling screen (Eurofins, enzymes, transporters, GPCRs, ion chanels)) EUB0000728a MMP14
[9] = biological target: Matrix metalloproteinase-16 (Homo sapiens, UniProt P51512); assay: Selectivity interaction (Lead profiling screen (Eurofins, enzymes, transporters, GPCRs, ion chanels)) EUB0000728a MMP16
[10] = biological target: 72 kDa type IV collagenase (Homo sapiens, UniProt P08253); assay: Selectivity interaction (Lead profiling screen (Eurofins, enzymes, transporters, GPCRs, ion chanels)) EUB0000728a MMP2
Sequence of 72 kDa type IV collagenase (P08253 whole entry): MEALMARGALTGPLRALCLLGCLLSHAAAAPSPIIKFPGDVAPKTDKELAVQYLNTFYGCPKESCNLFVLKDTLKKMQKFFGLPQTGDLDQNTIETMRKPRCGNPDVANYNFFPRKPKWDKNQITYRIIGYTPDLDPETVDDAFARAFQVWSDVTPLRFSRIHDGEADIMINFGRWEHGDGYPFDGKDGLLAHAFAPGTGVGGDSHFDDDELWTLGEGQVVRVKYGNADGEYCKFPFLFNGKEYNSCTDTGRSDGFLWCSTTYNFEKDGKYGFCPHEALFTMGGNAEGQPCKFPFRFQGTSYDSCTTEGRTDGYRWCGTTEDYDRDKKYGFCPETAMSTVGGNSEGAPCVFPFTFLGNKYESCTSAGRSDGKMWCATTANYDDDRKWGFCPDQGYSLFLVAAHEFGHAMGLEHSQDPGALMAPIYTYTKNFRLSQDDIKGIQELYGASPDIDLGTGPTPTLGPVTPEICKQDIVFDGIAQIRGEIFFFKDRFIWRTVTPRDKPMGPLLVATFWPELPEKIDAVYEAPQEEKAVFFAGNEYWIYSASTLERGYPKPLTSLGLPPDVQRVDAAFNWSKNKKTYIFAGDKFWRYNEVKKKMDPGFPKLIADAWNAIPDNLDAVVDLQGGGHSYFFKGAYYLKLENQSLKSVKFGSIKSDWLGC

Stromelysin-1 = Stromelysin-1 (Homo sapiens, UniProt P08254); assay: Selectivity interaction (Lead profiling screen (Eurofins, enzymes, transporters, GPCRs, ion chanels)) EUB0000728a MMP3
Matrilysin = biological target: T1, Matrilysin (Homo sapiens, UniProt P09237); assay: Selectivity interaction (Lead profiling screen (Eurofins, enzymes, transporters, GPCRs, ion chanels)) EUB0000728a MMP7
T1 sequence (P09237 whole entry): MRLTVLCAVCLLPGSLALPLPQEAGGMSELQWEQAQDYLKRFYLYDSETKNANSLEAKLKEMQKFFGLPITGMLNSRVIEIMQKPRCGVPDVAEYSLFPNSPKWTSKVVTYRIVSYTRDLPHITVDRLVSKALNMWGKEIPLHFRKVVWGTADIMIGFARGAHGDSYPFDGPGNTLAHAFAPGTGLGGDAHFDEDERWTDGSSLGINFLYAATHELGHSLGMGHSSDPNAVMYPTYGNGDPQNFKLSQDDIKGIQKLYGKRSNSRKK

Neutrophil collagenase = Neutrophil collagenase (Homo sapiens, UniProt P22894); assay: Selectivity interaction (Lead profiling screen (Eurofins, enzymes, transporters, GPCRs, ion chanels)) EUB0000728a MMP8
Sequence of Neutrophil collagenase (P22894 whole entry): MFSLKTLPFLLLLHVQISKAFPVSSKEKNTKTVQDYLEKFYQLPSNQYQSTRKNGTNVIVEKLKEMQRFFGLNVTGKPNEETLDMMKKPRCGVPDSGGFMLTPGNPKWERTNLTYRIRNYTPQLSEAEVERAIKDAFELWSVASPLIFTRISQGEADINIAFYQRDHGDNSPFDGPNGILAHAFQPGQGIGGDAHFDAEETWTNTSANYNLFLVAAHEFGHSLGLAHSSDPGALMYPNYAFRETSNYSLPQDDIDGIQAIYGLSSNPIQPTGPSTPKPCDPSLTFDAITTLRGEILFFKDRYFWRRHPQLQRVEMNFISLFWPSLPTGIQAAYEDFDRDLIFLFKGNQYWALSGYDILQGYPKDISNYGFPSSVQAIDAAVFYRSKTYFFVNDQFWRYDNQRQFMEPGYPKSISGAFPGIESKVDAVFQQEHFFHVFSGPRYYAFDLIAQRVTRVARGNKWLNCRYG

[11] = biological target: Matrix metalloproteinase-9 (Homo sapiens, UniProt P14780); assay: Selectivity interaction (Lead profiling screen (Eurofins, enzymes, transporters, GPCRs, ion chanels)) EUB0000728a MMP9
[12] = biological target: Epidermal growth factor receptor (Homo sapiens, UniProt P00533); assay: Selectivity interaction (KinomeScan (DiscoverX)) EUB0000728a EGFR; conditions: at 1 µM
Sequence of Epidermal growth factor receptor (P00533 whole entry): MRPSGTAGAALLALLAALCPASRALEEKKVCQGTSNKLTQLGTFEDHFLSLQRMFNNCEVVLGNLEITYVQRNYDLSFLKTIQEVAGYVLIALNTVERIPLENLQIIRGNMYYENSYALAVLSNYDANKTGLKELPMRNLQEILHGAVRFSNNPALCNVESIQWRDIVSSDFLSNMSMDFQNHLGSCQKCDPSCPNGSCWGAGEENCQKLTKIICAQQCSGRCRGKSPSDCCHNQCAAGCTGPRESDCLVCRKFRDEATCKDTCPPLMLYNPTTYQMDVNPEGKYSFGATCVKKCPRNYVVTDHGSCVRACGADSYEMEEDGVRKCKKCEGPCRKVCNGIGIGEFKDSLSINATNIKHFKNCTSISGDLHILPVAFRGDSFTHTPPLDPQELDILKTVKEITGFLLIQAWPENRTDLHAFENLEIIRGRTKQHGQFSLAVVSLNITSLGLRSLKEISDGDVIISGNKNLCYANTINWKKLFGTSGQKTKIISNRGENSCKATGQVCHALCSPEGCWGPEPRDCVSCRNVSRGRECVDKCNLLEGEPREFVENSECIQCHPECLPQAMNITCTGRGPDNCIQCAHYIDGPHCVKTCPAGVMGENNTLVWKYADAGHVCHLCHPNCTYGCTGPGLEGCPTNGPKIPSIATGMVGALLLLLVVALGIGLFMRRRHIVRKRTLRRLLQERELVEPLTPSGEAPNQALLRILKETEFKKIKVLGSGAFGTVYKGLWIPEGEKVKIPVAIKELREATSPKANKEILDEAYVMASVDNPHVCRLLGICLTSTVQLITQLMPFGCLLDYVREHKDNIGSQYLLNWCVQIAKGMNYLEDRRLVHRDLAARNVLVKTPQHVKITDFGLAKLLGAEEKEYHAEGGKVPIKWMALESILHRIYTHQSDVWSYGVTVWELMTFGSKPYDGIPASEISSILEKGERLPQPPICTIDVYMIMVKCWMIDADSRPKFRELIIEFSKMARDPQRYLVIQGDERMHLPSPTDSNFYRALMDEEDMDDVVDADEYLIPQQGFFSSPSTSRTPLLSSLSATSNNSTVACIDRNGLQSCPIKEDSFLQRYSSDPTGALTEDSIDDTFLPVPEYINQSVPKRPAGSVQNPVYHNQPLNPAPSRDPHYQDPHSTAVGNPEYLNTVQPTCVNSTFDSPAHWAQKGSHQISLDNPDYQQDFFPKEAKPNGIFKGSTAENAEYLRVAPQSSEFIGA

[13] = biological target: Non-receptor tyrosine-protein kinase TYK2 (Homo sapiens, UniProt P29597); assay: Selectivity interaction (KinomeScan (DiscoverX)) EUB0000728a TYK2; conditions: at 1 µM
Sequence of Non-receptor tyrosine-protein kinase TYK2 (P29597 whole entry): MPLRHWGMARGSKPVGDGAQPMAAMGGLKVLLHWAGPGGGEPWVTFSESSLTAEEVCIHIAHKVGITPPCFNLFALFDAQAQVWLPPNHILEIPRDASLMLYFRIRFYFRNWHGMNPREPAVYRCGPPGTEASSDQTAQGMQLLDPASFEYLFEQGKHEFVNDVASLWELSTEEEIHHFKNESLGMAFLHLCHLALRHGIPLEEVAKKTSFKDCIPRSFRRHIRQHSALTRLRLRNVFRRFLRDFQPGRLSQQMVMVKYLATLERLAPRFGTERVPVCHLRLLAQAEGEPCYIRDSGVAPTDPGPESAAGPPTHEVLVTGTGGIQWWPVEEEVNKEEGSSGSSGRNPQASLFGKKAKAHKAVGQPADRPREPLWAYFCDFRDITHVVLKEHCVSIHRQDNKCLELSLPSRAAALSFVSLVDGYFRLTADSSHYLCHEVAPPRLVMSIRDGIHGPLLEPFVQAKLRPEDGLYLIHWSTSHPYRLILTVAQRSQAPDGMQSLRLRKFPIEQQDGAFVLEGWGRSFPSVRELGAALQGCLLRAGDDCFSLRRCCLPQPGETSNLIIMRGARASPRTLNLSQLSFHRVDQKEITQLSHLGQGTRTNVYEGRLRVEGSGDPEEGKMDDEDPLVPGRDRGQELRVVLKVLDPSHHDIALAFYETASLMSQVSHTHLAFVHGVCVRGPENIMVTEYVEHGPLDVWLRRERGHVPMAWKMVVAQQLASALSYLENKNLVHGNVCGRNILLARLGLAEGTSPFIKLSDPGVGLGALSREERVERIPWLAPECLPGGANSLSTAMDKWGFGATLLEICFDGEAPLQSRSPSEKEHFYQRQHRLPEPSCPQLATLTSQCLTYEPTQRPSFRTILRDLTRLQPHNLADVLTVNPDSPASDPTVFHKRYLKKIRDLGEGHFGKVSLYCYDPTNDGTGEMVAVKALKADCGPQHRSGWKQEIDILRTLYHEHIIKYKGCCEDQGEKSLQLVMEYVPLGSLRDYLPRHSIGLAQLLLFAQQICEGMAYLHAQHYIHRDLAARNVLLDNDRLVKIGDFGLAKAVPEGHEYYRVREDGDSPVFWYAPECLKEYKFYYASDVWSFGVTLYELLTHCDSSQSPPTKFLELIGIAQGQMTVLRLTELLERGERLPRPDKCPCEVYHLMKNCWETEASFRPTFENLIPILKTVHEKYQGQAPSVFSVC

Adenosine receptor A3 = biological target: T2, Adenosine receptor A3 (Homo sapiens, UniProt P0DMS8); assay: Selectivity interaction (Eurofins-Panlabs radioligand binding assay ) EUB0000307b ADORA3
T2 sequence (P0DMS8 whole entry): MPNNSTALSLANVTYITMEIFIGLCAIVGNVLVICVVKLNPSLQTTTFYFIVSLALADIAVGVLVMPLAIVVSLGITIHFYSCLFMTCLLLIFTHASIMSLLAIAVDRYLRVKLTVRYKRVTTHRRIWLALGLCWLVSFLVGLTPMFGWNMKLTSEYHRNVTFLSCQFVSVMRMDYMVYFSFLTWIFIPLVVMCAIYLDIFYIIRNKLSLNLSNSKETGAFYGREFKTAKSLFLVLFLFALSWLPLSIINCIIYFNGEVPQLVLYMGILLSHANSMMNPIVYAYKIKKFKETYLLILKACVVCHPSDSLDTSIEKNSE

[14] = biological target: Prostaglandin E2 receptor EP4 subtype (Homo sapiens, UniProt P35408); assay: Selectivity interaction (Eurofins-Panlabs radioligand binding assay ) EUB0000307b PTGER4
[15] = biological target: Serine/threonine-protein kinase WNK4 (Homo sapiens) (UniProt Q96J92); assay: Selectivity interaction (KinomeScan (DiscoverX)) EUB0000307b WNK4; conditions: at 1 µM
[16] = biological target: Epithelial discoidin domain-containing receptor 1 (Homo sapiens, UniProt Q08345); assay: Selectivity interaction (KinomeScan (DiscoverX)) EUB0000307b DDR1; conditions: at 1 µM

## CCOCCn1cc(C(=O)Nc2ccc(-n3nc(-c4cccnc4)cc3C(F)(F)F)cn2)ccc1=O [BI 1935]
[1]
  % of control: 0%
[2]
  % of inhibition: 66%
[3]
  IC50: 5920 nM
[4]
  % of control: 0%
[5]
  % of control: 37%
[6]
  % of inhibition: 96%
Thromboxane-A synthase
  IC50: 132 nM

## O=C(O)[C@H]1[C@H](Cn2nnc3ccccc3c2=O)CC[C@@H]1C(=O)c1ccc(OCCC2CCOCC2)cc1 [BAY-7598]
D(2) dopamine receptor
  % of inhibition: 30%
[7]
  % of control: 46%
Collagenase 3
  IC50: 67 nM
Stromelysin-2
  IC50: 13 nM
[8]
  IC50: 250 nM
[9]
  IC50: 940 nM
[10]
  IC50: 44 nM
Stromelysin-1
  IC50: 360 nM
Matrilysin
  IC50: 600 nM
Neutrophil collagenase
  IC50: 15 nM
[11]
  IC50: 460 nM
[12]
  % of control: 40%
[13]
  % of control: 41%

## Cc1c(NC(=O)c2cc(C(N)=O)nc3cc(F)ccc23)c(C(F)(F)F)nn1Cc1ccc(C#N)cc1 [BAY-876]
Adenosine receptor A3
  IC50: 1140 nM
[14]
  IC50: 1120 nM
[15]
  % of control: 0%
[16]
  % of control: 1.5%
